Key:
Type in all cases: cell-based, human
[1] = test system: XPC4 endogenous locus in 293H cells; experiment: Gene targeting induced by XPC4 meganuclease at its endogenous locus, PCR on cellular clones; conditions: for targeted events, % of the transfected cells: XPC4 meganuclease + repair matrix, n=2
Protocol: FIG. 11: XPC4 meganuclease efficiency is impaired by DNA methylation in vivo. 293H cells were co-transfected with 3 μg of XPC4 meganuclease expressing vector or empty vector and 2 μg of DNA repair matrix vector in presence or absence of DNA methylation inhibitor (5-aza-2′deoxycytidine). 480 individual cellular clones were analyzed in each condition for the presence of targeted events using specific PCR amplification.
Cell culture as well as general transfection conditions were described in “material and methods” section of part b) above. For this assay, 293H cells were co-transfected with 3 μg of XPC4 meganuclease expressing vector or empty vector and 2 μg of DNA repair matrix. The DNA repair matrix consists of a left and right arms corresponding to isogenic sequences of 1 kb located on both sides of the meganuclease recognition site. These two homology arms are separated by a heterologous fragment of 29 bp (sequence: […], SEQ ID NO: 64). Two days post-transfection, cells were replated in 10 cm dish. Two weeks later, individual clones were picked and subsequently amplified in 96 wells plates for 3 days. 480 individual cellular clones were then analyzed per condition. DNA extraction was performed with the ZR-96 genomic DNA kit (Zymo research) according to the supplier's protocol. The detection of targeted DNA matrix integrations was performed by specific PCR amplification using the primers: XPC4_F4: 5′-[…]-3′ (SEQ ID NO: 41) (located within the 29 bp of heterologous sequence, i.e. SEQ ID NO: 64) and XPC4_R4: 5′-[…]-3′ (located on the genomic sequence outside of the homology) (SEQ ID NO: 42).

[2] = test system: XPC4 target CpG motives in 293H cells; experiment: DNA methylation of XPC4 target by bisulfite treatment and sequencing, 5-aza-2-deoxycytidine treatment; conditions: for amount of unmethylated C, % of total: one of the two CpG of XPC4 target; for amount of unmethylated C: the other CpG of XPC4 target
Protocol: FIG. 9: Chromatograms of sequencing reactions at the XPC4 target locus, made after bisulfite treatment. Cells were pre-treated with 5-aza-2-deoxycytidine at 0.2 μM or 1 μM 48 hours before transfection with the XPC4 meganuclease or with an empty vector. The treatment was maintained 48 hours post-transfection. As a control, we used cells not treated with 5-aza-2-deoxycytidine (NT). Two days post transfection, genomic DNA was extracted and treated with bisulfite, which converts cytosine, but not 5-methylcytosine into uracil. DNA from the XPC4 target locus region was amplified by PCR, and sequenced. Sequence of the XPC4 target is indicated on top (XPC4 target), with the two CpG motives being underlined. On the chromatograms, 5-methyl-cytosines appear as cytosines (C), and non methylated cytosines (converted to uracil) as thymines (T). In the presence of 5-aza-2-deoxycytidine, a fraction of the CpG motives is demethylated, resulting in a dual C/T peak.
The human 293H cells (ATCC) were plated at a density of 1.2×10^6 cells per 10 cm dish in complete medium (DMEM supplemented with 2 mM L-glutamine, penicillin (100 IU/ml), streptomycin (100 μg/ml), amphotericin B (Fongizone: 0.25 μg/ml, Invitrogen-Life Science) and 10% FBS) supplemented with 5-aza-deoxycytidine. The next day, cells were transfected with 3 μg of meganuclease expression vector in the presence of 5-aza-deoxycytidine and Lipofectamine 2000 transfection reagent (Invitrogen) according to the manufacturer's protocol.
Cells were pre-treated with 5-aza-deoxycytidine at 0.2 μM or 1 μM 48 hours before transfection and the treatment was maintained 48 hours post-transfection. As a control, cells not treated with 5-aza-2-deoxycytidine (NT) were used. Extraction of genomic DNA was performed 48 hours after transfection.
To assess the level DNA methylation, DNA sequencing was performed after a bisulfite treatment according to the instructions of the manufacturer (EZ DNA methylation-Gold Kit, Zymo Research). After genomic DNA extraction, the XPC4 target locus was amplified by PCR with specific primers

[3] = test system: ADCY9 target CpG in 293H cells; experiment: DNA methylation status of ADCY9 target by bisulfite technique; conditions: 0.2 and 1 μM; 100% methylated without treatment
Protocol: (§1) The human 293H cells (ATCC) were plated at a density of 1.2×10^6 cells per 10 cm dish in complete medium (DMEM supplemented with 2 mM L-glutamine, penicillin (100 IU/ml), streptomycin (100 μg/ml), amphotericin B (Fongizone: 0.25 μg/ml, Invitrogen-Life Science) and 10% FBS). The cells were pre-treated with 5-aza-deoxycytidine at 0.2 μM or 1 μM, 48 hours before transfection and the treatment was maintained 48 hours post-transfection. The medium was changed every day. The cells were transfected with 5 μg of DNA plasmids encoding meganuclease using Lipofectamine 2000 transfection reagent (Invitrogen) according to the manufacturer's protocol.
The procedure as described in Example 4 was followed to assess the level of DNA methylation, except that we used specific primers to amplify the sequence surrounded the ADCY9 meganuclease recognition site. Primers ADCY9_F1 […] (SEQ ID NO: 43) and ADCY9_R1 […] (SEQ ID NO: 44) were used. PCR products were sequenced directly with primer ADCY9_F2 […] (SEQ ID NO: 45).

[4] = test system: ADCY9 endogenous recognition site in 293H cells; experiment: Meganuclease-induced mutagenesis assay at ADCY9 recognition site
Protocol: as §1
The efficiency of the meganuclease to promote mutagenesis at its endogenous recognition site was evaluated by sequencing the DNA surrounding the meganuclease cleavage site.
Two days post-transfection, genomic DNA was extracted. 200 ng of genomic DNA were used to amplify (PCR amplification) the endogenous locus surrounding the meganuclease cleavage site. PCR amplification is performed to obtain a fragment flanked by specific adaptor sequences [adaptor A: 5′-[…]-NNNN-3′ (SEQ ID NO: 46) and adaptor B, 5′-[…]-3′ (SEQ ID NO: 47)] provided by the company offering sequencing service (GATC Biotech AG, Germany) on the 454 sequencing system (454 Life Sciences). The primers sequences used for PCR amplification were: ADCY9_F3: 5′-[…]-NNNN-[…]-3′ (SEQ ID NO: 48) and ADCY9_R3: 5′-[…]-[…]-3′ (SEQ ID NO: 49). Sequences specific to the locus are underlined. The sequence NNNN in primer F1 is a Barcode sequence (Tag) needed to link the sequence with a PCR product. The percentage of PCR fragments carrying insertion or deletion at the meganuclease cleavage site is related to the mutagenesis induced by the meganuclease through NHEJ pathway in a cell population, and therefore correlates with the meganuclease activity at its endogenous recognition site. 5000 to 10000 sequences were analyzed per conditions.

Molecule: Nc1ncn([C@H]2C[C@H](O)[C@@H](CO)O2)c(=O)n1 [5-aza-2′deoxycytidine, reference compound]
- targeted events ([1]; absence of meganuclease, with 5-aza-2′deoxycytidine treatment): no targeted events could be detected
- amount of unmethylated C, % of total ([2]; 0.2 μM): 25%
- amount of unmethylated C, % of total ([2]; 1 μM): 36%
- amount of unmethylated C ([2]; 0.2 μM): 35%
- amount of unmethylated C ([2]; 1 μM): 45%
- amount of methylated CpG within ADCY9 target [3]: 40%
- mutagenesis, PCR fragments carrying a mutation ([4]; Empty vector, 0.2 μM 5-aza-2′-deoxycytidine): 0.03%
- mutagenesis, PCR fragments carrying a mutation ([4]; Empty vector, 1 μM 5-aza-2′-deoxycytidine): 0.03%

B1: XPC4: engineered meganuclease (SEQ ID NO: 2) designed to cleave xeroderma pigmentosum group C gene (XPC) (protein)
chain: MANTKYNEEFLLYLAGFVDGDGSIIAQIKPNQSHKFKHALQLTFKVTQKTQRRWFLDKLVDEIGVGYVQDSGSVSNYILSEIKPLHNFLTQLQPFLELKQKQANLALKIIEQLPSAKESPDKFLEVCTWVDQVAALNDSKTRKTTSETVRAVLDSLSEKKKSSPAAGGSDKYNQALSKYNQALSKYNQALSGGGGSNKKFLLYLAGFVDSDGSIIAQIKPNQSHKFKHQLSLAFQVTQKTQRRWFLDKLVDRIGVGYVRDRGSVSDYILSKIKPLHNFLTQLQPFLKLKQKQANLVLKIIEQLPSAKESPDKFLEVCTWVDQVAALNDSKTRKTTSETVRAVLDSLSEKKKSSP
- targeted events, % of the transfected cells ([1]; 5-aza-2′deoxycytidine (0.2 μM)): 12.5%±0.26
- targeted events, % of the transfected cells ([1]; absence of 5-aza-2′deoxycytidine): 1.05%±0.34
- increase of targeted event frequency ([1]; with 5-aza-2′deoxycytidine (0.2 μM) vs without): 12 fold

B2: ADCY9: engineered meganuclease (SEQ ID NO: 3) designed to cleave adenylate cyclase 9 gene (protein)
chain: MANTKYNEEFLLYLAGFVDGDGSIIAQIKPNQSYKFKHQLSLTFRVTQKTQRRWFLDKLVDEIGVGYVRDSGSVSNYDLSEIKPLHNFLTQLQPFLELKQKQANLVLKIIEQLPSAKESPDKFLEVCTWVDQVAALNDSKTRKTTSETVRAVLDSLSEKKKSSPAAGGSDKYNQALSKYNQALSKYNQALSGGGGSNKKFLLYLAGFVDSDGSIIAQIKPDQSYKFKHQLGLTFQVTQKTQRRWFLDKLVDRIGVGYVRDRGSVSDYILSEIKPLHNFLTQLQPFLKLKQKQANLVLKIIEQLPSAKESPDKFLEVCTWVDQVAALNDSKTRKTTSETVRAVLDSLSEKKKSSP
- mutagenesis, PCR fragments carrying a mutation ([4]; ADCY9 meganuclease, 0 μM 5-aza-2′-deoxycytidine): 0.16% ± 0.06
- mutagenesis, PCR fragments carrying a mutation ([4]; ADCY9 meganuclease, 0 μM 5-aza-2′-deoxycytidine, listed as ADCY9 meganuclease): 0.16%±0.06
- mutagenesis, PCR fragments carrying a mutation ([4]; ADCY9 meganuclease, 0.2 μM 5-aza-2′-deoxycytidine): 0.48% ± 0.01
- mutagenesis, PCR fragments carrying a mutation ([4]; ADCY9 meganuclease, 1 μM 5-aza-2′-deoxycytidine): 0.36%
- mutations ([4]; ADCY9 meganuclease, samples treated with 5-aza-2′deoxycytidine, n=2): up to 0.48%±0.01

Reference: patent US20130196320A1, “METHOD FOR IMPROVING CLEAVAGE OF DNA BY ENDONUCLEASE SENSITIVE TO METHYLATION” (CELLECTIS, priority 2010, published 2013)
